Laboratory results as given in paper PMC12615753, “Glutathione as a taste modulator: molecular mechanisms of interaction with umami and sweet taste receptors” (Food Chemistry: Molecular Sciences, 2025).

Target: T1, hTAS1R1 Q278A/rTAS1R3 (Homo sapiens, UniProt Q7RTX1, Q278A)
T1 construct: expressed in transfected cells; host or cells: HEK293T/17 (ATCC CRL-11268)
T1 sequence (Q7RTX1 21-841 Q278A): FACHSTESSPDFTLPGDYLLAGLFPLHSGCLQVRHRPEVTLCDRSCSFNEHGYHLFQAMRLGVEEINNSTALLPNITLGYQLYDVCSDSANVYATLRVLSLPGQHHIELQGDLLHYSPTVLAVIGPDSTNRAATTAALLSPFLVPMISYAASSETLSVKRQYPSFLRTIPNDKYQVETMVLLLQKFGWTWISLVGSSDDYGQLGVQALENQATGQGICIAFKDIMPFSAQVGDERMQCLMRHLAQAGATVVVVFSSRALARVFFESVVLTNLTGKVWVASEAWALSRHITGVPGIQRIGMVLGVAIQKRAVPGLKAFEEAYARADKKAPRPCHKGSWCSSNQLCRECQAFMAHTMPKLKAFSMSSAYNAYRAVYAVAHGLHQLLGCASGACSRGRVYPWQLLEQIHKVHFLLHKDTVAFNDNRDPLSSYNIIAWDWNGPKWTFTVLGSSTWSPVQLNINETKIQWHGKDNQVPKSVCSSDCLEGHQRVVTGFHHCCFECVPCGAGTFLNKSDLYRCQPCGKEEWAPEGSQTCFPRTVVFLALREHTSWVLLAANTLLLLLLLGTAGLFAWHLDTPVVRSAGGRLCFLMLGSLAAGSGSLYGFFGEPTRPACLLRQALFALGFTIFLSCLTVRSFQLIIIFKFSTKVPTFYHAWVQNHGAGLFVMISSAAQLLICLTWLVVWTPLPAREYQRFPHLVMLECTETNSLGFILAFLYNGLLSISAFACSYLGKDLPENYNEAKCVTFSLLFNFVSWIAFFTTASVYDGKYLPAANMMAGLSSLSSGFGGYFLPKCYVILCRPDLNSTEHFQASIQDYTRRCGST
T1 sequence (Q923K1 21-858 partner): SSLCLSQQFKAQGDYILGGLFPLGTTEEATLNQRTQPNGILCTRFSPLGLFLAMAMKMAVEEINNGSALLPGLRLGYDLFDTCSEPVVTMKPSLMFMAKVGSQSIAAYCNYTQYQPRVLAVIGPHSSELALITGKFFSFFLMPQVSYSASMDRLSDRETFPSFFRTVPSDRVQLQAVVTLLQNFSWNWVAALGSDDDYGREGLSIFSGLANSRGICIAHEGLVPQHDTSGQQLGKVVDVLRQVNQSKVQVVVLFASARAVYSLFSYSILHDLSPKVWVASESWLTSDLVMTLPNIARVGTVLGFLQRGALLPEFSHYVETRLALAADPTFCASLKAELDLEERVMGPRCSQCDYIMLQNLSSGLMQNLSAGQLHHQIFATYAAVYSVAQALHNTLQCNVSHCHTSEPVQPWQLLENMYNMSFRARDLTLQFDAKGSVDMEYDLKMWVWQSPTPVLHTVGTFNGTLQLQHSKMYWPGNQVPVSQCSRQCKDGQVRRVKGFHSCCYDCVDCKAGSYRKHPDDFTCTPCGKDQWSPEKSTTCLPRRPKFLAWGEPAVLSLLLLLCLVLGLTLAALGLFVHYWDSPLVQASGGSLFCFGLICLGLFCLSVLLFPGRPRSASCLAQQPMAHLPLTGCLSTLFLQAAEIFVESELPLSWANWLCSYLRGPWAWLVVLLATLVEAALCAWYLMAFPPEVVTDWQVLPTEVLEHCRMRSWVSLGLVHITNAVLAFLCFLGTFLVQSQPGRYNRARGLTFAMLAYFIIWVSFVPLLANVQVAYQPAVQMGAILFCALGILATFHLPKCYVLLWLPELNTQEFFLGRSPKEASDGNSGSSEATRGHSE
Assay: Calcium assay, hTAS1R1 mutant co-expressed with rTAS1R3
Format: cell-based, rat

N[C@@H](CCC(=O)N[C@@H](CS)C(=O)NCC(=O)O)C(=O)O [GSH, γ-L-glutamyl-L-cysteinyl-glycine]
EC50: 3.42 ± 0.073 mM | effect of the added compound (1 mM) on the response to L-Glu (Q278A): synergy was observed | response to the agonist alone, vs WT (Q278A): significantly increased the initial amplitude | Max ∆F/F0 (Q278A, GSH): 1.46 ± 0.01 | R1 = mutant EC50/WT EC50 (Q278A, GSH): 1.4
